Experimental data taken from ChEMBL document CHEMBL1201862, “PubChem BioAssay data set” (2004).
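Grown in 96-well plates, cells were treated for 48 hours with each compound at five concentrations. Insufficient inhibition: endpoint recorded as highest concentration tested. GI50: concentration for 50% inhibition of growth.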 Calls of active or inactive are those of the source. Rule as the data show it: active = GI50 up to about 1.1 µM and inactive = higher.

What was measured:
Assay in all cases: NCI anticancer screen, dose series, 48 h
UACC-257 = system: UACC-257
NCI-H226 = system: NCI-H226
UACC-62 = system: UACC-62
HOP-18 = system: HOP-18
SNB-19 = system: SNB-19
M14 = system: M14
786-0 = system: 786-0
CAKI-1 = system: CAKI-1
SF-539 = system: SF-539
SR = system: SR
OVCAR-4 = system: OVCAR-4
RPMI-8226 = system: RPMI-8226
MDA-N = system: MDA-N
LXFL 529 = system: LXFL 529
HT-29 = system: HT-29
NCI/ADR-RES = system: NCI/ADR-RES
SW-620 = system: SW-620
MDA-MB-435 = system: MDA-MB-435
MCF7 = system: MCF7
NCI-H522 = system: NCI-H522
NCI-H460 = system: NCI-H460
DU-145 = system: DU-145
DMS-114 = system: DMS-114
IGROV-1 = system: IGROV-1
MOLT-4 = system: MOLT-4
LOX IMVI = system: LOX IMVI
UO-31 = system: UO-31
NCI-H23 = system: NCI-H23
HOP-62 = system: HOP-62
SN12C = system: SN12C
COLO 205 = system: COLO 205
A549 = system: A549
HL-60 = system: HL-60
U-251 = system: U-251
PC-3 = system: PC-3
HCC 2998 = system: HCC 2998
EKVX = system: EKVX
OVCAR-3 = system: OVCAR-3
SF-295 = system: SF-295
A498 = system: A498
Hs-578T = system: Hs-578T
SF-268 = system: SF-268
M19-MEL = system: M19-MEL
Malme-3M = system: Malme-3M
SK-MEL-5 = system: SK-MEL-5
T47D = system: T47D
SNB-78 = system: SNB-78
HOP-92 = system: HOP-92
KM-20L2 = system: KM-20L2
MDA-MB-231 = system: MDA-MB-231
HCT-15 = system: HCT-15
OVCAR-8 = system: OVCAR-8
KM12 = system: KM12
HCT-116 = system: HCT-116
SNB-75 = system: SNB-75
ACHN = system: ACHN
BT-549 = system: BT-549
SK-MEL-28 = system: SK-MEL-28
TK-10 = system: TK-10
K562 = system: K562
OVCAR-5 = system: OVCAR-5
RXF 393 = system: RXF 393
SK-MEL-2 = system: SK-MEL-2
DLD-1 = system: DLD-1
SK-OV-3 = system: SK-OV-3
DMS-273 = system: DMS-273
XF498 = system: XF498
CCRF-CEM = system: CCRF-CEM

Measured: GI50

Nc1ccccc1C(=O)NC(=O)Nc1ccc(Oc2ncc(Br)cn2)c(Cl)c1
inactive: HOP-18 13 µM | T47D 51.8 µM | BT-549 2.48 µM
active: UACC-257 < 0.0259 µM | NCI-H226 0.0472 µM | UACC-62 < 0.01 µM | SNB-19 0.0247 µM | M14 0.0152 µM | 786-0 < 0.01 µM | CAKI-1 < 0.01 µM | SF-539 < 0.01 µM | SR < 0.01 µM | OVCAR-4 0.698 µM | RPMI-8226 0.0182 µM | MDA-N < 0.01 µM | LXFL 529 < 0.01 µM | HT-29 < 0.01 µM | NCI/ADR-RES < 0.01 µM | SW-620 < 0.01 µM | MDA-MB-435 < 0.01 µM | MCF7 < 0.01 µM | NCI-H522 < 0.01 µM | NCI-H460 < 0.01 µM | DU-145 < 0.0123 µM | DMS-114 < 0.01 µM | IGROV-1 < 0.0118 µM | MOLT-4 < 0.01 µM | LOX IMVI < 0.01 µM | UO-31 0.014 µM | NCI-H23 0.0108 µM | HOP-62 0.0109 µM | SN12C 0.0133 µM | COLO 205 < 0.01 µM | A549 < 0.01 µM | HL-60 < 0.01 µM | U-251 < 0.01 µM | PC-3 < 0.01 µM | HCC 2998 0.0116 µM | EKVX 0.247 µM | OVCAR-3 < 0.01 µM | SF-295 < 0.01 µM | A498 < 0.01 µM | Hs-578T < 0.01 µM | SF-268 < 0.01 µM | M19-MEL < 0.01 µM | Malme-3M < 0.01 µM | SK-MEL-5 < 0.01 µM | SNB-78 < 0.12 µM | HOP-92 0.217 µM | KM-20L2 < 0.01 µM | MDA-MB-231 0.0145 µM | OVCAR-8 0.0119 µM | KM12 < 0.01 µM | HCT-116 < 0.01 µM | SNB-75 < 0.01 µM | ACHN 0.0614 µM | SK-MEL-28 < 0.01 µM | TK-10 0.0274 µM | K562 < 0.01 µM | OVCAR-5 0.438 µM | RXF 393 0.0261 µM | SK-MEL-2 < 0.0929 µM | DLD-1 < 0.01 µM | SK-OV-3 < 0.01 µM
< 0.01 µM: HCT-15

N#Cc1nc(Nc2cccc3ccccc23)sc1N
inactive: UACC-257 15.8 µM | NCI-H226 41.8 µM | UACC-62 21.2 µM | SNB-19 38.8 µM | M14 39.9 µM | 786-0 33 µM | CAKI-1 28.7 µM | SF-539 23.2 µM | SR 3.05 µM | OVCAR-4 57.7 µM | RPMI-8226 11.9 µM | LXFL 529 29.9 µM | HT-29 41.1 µM | SW-620 41.2 µM | NCI-H522 15.9 µM | NCI-H460 35 µM | DMS-273 36.8 µM | IGROV-1 45.1 µM | MOLT-4 11.5 µM | LOX IMVI 17.3 µM | UO-31 12.9 µM | NCI-H23 14 µM | HOP-62 33.3 µM | SN12C 14.1 µM | COLO 205 24.6 µM | A549 26.5 µM | HL-60 20.7 µM | U-251 22.2 µM | HCC 2998 20.3 µM | OVCAR-3 44.6 µM | SF-295 28.3 µM | SF-268 20.4 µM | M19-MEL 28.5 µM | Malme-3M 26.2 µM | SNB-78 13 µM | HOP-92 21.1 µM | KM-20L2 43.2 µM | OVCAR-8 31.4 µM | KM12 30.2 µM | HCT-116 32.1 µM | SNB-75 42.8 µM | ACHN 25.1 µM | SK-MEL-28 37.9 µM | XF498 20.3 µM | TK-10 40.6 µM | K562 25.8 µM | OVCAR-5 68.9 µM | SK-MEL-2 28.5 µM | DLD-1 48.4 µM | SK-OV-3 38 µM
29.5 µM: HCT-15

CCOC(C[C@H](O)[C@H]1COC(=S)S1)OCC
inactive: UACC-257 > 100 µM | NCI-H226 > 100 µM | UACC-62 > 100 µM | SNB-19 > 100 µM | M14 > 100 µM | 786-0 > 100 µM | SF-539 > 100 µM | SR > 100 µM | RPMI-8226 > 100 µM | LXFL 529 > 100 µM | HT-29 > 100 µM | SW-620 > 100 µM | NCI-H522 > 100 µM | NCI-H460 > 100 µM | DMS-273 > 100 µM | DMS-114 > 100 µM | IGROV-1 > 100 µM | LOX IMVI > 100 µM | UO-31 > 100 µM | NCI-H23 > 100 µM | HOP-62 > 100 µM | SN12C > 100 µM | COLO 205 > 100 µM | A549 > 100 µM | HL-60 > 100 µM | U-251 > 100 µM | HCC 2998 > 100 µM | EKVX > 100 µM | OVCAR-3 > 100 µM | SF-295 > 100 µM | SF-268 > 100 µM | M19-MEL > 100 µM | Malme-3M > 100 µM | SK-MEL-5 > 100 µM | KM-20L2 > 100 µM | OVCAR-8 > 100 µM | KM12 > 100 µM | HCT-116 > 100 µM | ACHN > 100 µM | XF498 > 100 µM | TK-10 > 100 µM | RXF 393 4.65 µM | SK-OV-3 > 10 µM
> 100 µM: HCT-15

CCOC(=O)C(NC(=O)c1nc[nH]c1[N+](=O)[O-])C(C)C (stereo unspecified)
> 100 µM: HCT-15
inactive: UACC-257 94.8 µM | NCI-H226 30.8 µM | UACC-62 > 100 µM | SNB-19 > 100 µM | M14 > 100 µM | 786-0 71.1 µM | CAKI-1 > 100 µM | SF-539 > 100 µM | SR 61.1 µM | OVCAR-4 > 100 µM | RPMI-8226 72.6 µM | LXFL 529 74.3 µM | HT-29 74 µM | SW-620 > 100 µM | NCI-H522 > 100 µM | NCI-H460 50.6 µM | DMS-273 53.6 µM | DMS-114 > 100 µM | IGROV-1 > 100 µM | MOLT-4 72.4 µM | LOX IMVI > 100 µM | UO-31 > 100 µM | NCI-H23 31.3 µM | HOP-62 > 100 µM | SN12C > 100 µM | COLO 205 82 µM | A549 > 100 µM | HL-60 27.6 µM | U-251 34.5 µM | HCC 2998 66.4 µM | EKVX 94 µM | OVCAR-3 > 100 µM | SF-295 47.9 µM | A498 > 100 µM | SF-268 > 100 µM | M19-MEL > 100 µM | Malme-3M > 100 µM | SK-MEL-5 17.3 µM | OVCAR-8 84.9 µM | KM12 > 100 µM | CCRF-CEM 47.2 µM | HCT-116 > 100 µM | SNB-75 > 100 µM | ACHN > 100 µM | SK-MEL-28 > 100 µM | XF498 19.9 µM | K562 > 100 µM | SK-MEL-2 > 100 µM | DLD-1 25 µM | SK-OV-3 > 100 µM

CCOC(=O)C(Cc1cn(S(=O)(=O)c2ccccc2)c2ccccc12)(NC(C)=O)C(=O)OCC
inactive: UACC-257 24.5 µM | NCI-H226 21.3 µM | UACC-62 27.9 µM | SNB-19 34.8 µM | M14 32.1 µM | 786-0 72.8 µM | CAKI-1 49.1 µM | SF-539 30.3 µM | SR 15.2 µM | OVCAR-4 33.3 µM | RPMI-8226 13.1 µM | LXFL 529 27.7 µM | HT-29 58.5 µM | SW-620 54.2 µM | NCI-H522 15.3 µM | NCI-H460 32.7 µM | DMS-273 35 µM | DMS-114 23.9 µM | IGROV-1 46.7 µM | MOLT-4 19 µM | UO-31 17.1 µM | NCI-H23 26.3 µM | HOP-62 27.2 µM | COLO 205 25 µM | A549 36.2 µM | HL-60 16.5 µM | U-251 40.1 µM | HCC 2998 34 µM | OVCAR-3 34 µM | SF-295 29.1 µM | SF-268 40 µM | M19-MEL 40.7 µM | Malme-3M 37.9 µM | SK-MEL-5 15.8 µM | HOP-92 19.8 µM | KM-20L2 46.6 µM | OVCAR-8 33 µM | KM12 29.4 µM | CCRF-CEM 25.1 µM | HCT-116 24.7 µM | SNB-75 8.18 µM | ACHN 32.3 µM | SK-MEL-28 42.6 µM | XF498 29.7 µM | TK-10 65.5 µM | K562 29 µM | OVCAR-5 > 100 µM | SK-MEL-2 30.6 µM | DLD-1 40.1 µM
42.5 µM: HCT-15
